These results are taken from patent publication US8574563B2 (Bristol-Myers Squibb Company, priority 2006, dated 2013).

The structures appear in SMILES notation.

This experiment relates to HCV 1b-377-neo replicon cells. Kind of experiment: HCV replicon assay, HCV 1b-377-neo replicon cells (1b FRET). Particulars: Hepatitis C virus, HCV 1b-377-neo replicon cells; HCV 1b genotype; read-out: EC50 range against HCV 1b (Table 2, Range). It counts as cell-based, Hepatitis C virus genotype 1b. A digest of the protocol: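 FRET-based replicon assay in HCV 1b-377-neo cells, including a comparison line carrying the NS5A Y2065H mutation that confers resistance to a reference compound.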
(In general: Replicon systems follow genome replication, usually without infectious particles.)

In general, EC50 refers to the concentration needed to bring the measured effect to its halfway point. With `COC(=O)N[C@H](C(=O)N1CCC[C@H]1c1ncc(-c2ccc(-c3ccc(-c4c[nH]c([C@@H]5CCCN5C(=O)[C@@H](NC(=O)OC)C5CC5)n4)c(F)c3)cc2F)[nH]1)C(C)C` [Example D55, methyl ((1S)-1-cyclopropyl-2-((2S)-2-(5-(3,3,-difluoro-4′-(2-((2S)-1-(N-(methoxycarbonyl)-L-valyl)-2-pyrrolidinyl)-1H-imidazol-5-yl)-4-biphenylyl)-1H-imidazol-2-yl)-1-pyrrolidinyl)-2-oxoethyl)carbamate], the EC50 was in the range of 0.001 to 0.999 nM.
For `COC(=O)N[C@@H](C)C(=O)N1CCC[C@H]1c1ncc(-c2ccc(-c3ccc(-c4cnc([C@@H]5CCCN5C(=O)[C@@H](NC(=O)OC)C(C)C)[nH]4)c(F)c3)cc2F)[nH]1` [Example D57, methyl ((1S)-1-(((2S)-2-(5-(3,3′-difluoro-4′-(2-((2S)-1-(N-(methoxycarbonyl)-L-alanyl)-2-pyrrolidinyl)-1H-imidazol-5-yl)-4-biphenylyl)-1H-imidazol-2-yl)-1-pyrrolidinyl)carbonyl)-2-methylpropyl) carbamate], the EC50 lay in the range of 0.001 to 0.999 nM.
On to `COC(=O)N[C@H](C(=O)N1CCC[C@H]1c1ncc(-c2ccc(-c3ccc(-c4cnc([C@@H]5CCCN5C(=O)[C@@H](NC(=O)OC)C(C)C)[nH]4)c(F)c3)cc2F)[nH]1)C(C)C` [Example D58, methyl ((1S)-1-(((2S)-2-(5-(3,3′-difluoro-4′-(2-((2S)-1-((2S)-2-((methoxycarbonyl)amino)-3-methylbutanoyl)-2-pyrrolidinyl)-1H-imidazol-5-yl)-4-biphenylyl)-1H-imidazol-2-yl)-1-pyrrolidinyl)carbonyl)-2-methylpropyl) carbamate], for which the EC50 fell in the range of 0.001 to 0.999 nM.
In the case of `CCN(CC)[C@H](C)C(=O)N1CCC[C@H]1c1ncc(-c2ccc(-c3ccc(-c4cnc([C@@H]5CCCN5C(=O)[C@@H](NC(=O)OC)C(C)C)[nH]4)c(F)c3)cc2F)[nH]1` [Example D59, methyl ((1S)-1-(((2S)-2-(5-(4′-(2-((2S)-1-(N,N-diethyl-D-alanyl)-2-pyrrolidinyl)-1H-imidazol-5-yl)-3,3′-difluoro-4-biphenylyl)-1H-imidazol-2-yl)-1-pyrrolidinyl)carbonyl)-2-methylpropyl) carbamate], the concentration giving a half-maximal response (EC50) is 0.001 to 0.999 nM.
To `COC(=O)N[C@H](C(=O)N1CCC[C@H]1c1ncc(-c2ccc(-c3ccc(-c4cnc([C@@H]5CCCN5C(=O)[C@H](NC(=O)OC)c5ccccc5)[nH]4)c(F)c3)cc2F)[nH]1)C(C)C` [Example D60, methyl ((1S)-1-(((2S)-2-(5-(3,3′-difluoro-4′-(2-((2S)-1-((2R)-2-((methoxycarbonyl)amino)-2-phenylacetyl)-2-pyrrolidinyl)-1H-imidazol-5-yl)-4-biphenylyl)-1H-imidazol-2-yl)-1-pyrrolidinyl)carbonyl)-2-methylpropyl) carbamate] belongs 0.001 to 0.999 nM; to `COC(=O)N[C@@H](C)C(=O)N1CCC[C@H]1c1ncc(-c2ccc(-c3ccc(-c4cnc([C@@H]5CCCN5C(=O)[C@H](C)NC(=O)OC)[nH]4)c(F)c3)cc2F)[nH]1` [Example D61, methyl ((1S)-2-((2S)-2-(5-(3,3,-difluoro-4′-(2-((2S)-1-(N-(methoxycarbonyl)-L-alanyl)-2-pyrrolidinyl)-1H-imidazol-5-yl)-4-biphenylyl)-1H-imidazol-2-yl)-1-pyrrolidinyl)-1-methyl-2-oxoethyl)carbamate], 0.001 to 0.999 nM; to `COC(=O)N[C@@H](C)C(=O)N1CCC[C@H]1c1ncc(-c2ccc(-c3ccc(-c4cnc([C@@H]5CCCN5C(=O)[C@H](NC(=O)OC)c5ccccc5)[nH]4)c(F)c3)cc2F)[nH]1` [Example D62, methyl ((1R)-2-((2S)-2-(5-(3,3′-difluoro-4′-(2-((2S)-1-(N-(methoxycarbonyl)-L-alanyl)-2-pyrrolidinyl)-1H-imidazol-5-yl)-4-biphenylyl)-1H-imidazol-2-yl)-1-pyrrolidinyl)-2-oxo-1-phenylethyl)carbamate], 0.001 to 0.999 nM.
With `CCN(CC)[C@H](C)C(=O)N1CCC[C@H]1c1ncc(-c2ccc(-c3ccc(-c4cnc([C@@H]5CCCN5C(=O)[C@H](NC(=O)OC)c5ccccc5)[nH]4)c(F)c3)cc2F)[nH]1` [Example D63, methyl ((1R)-2-((2S)-2-(5-(4′-(2-((2S)-1-(N,N-diethyl-D-alanyl)-2-pyrrolidinyl)-1H-imidazol-5-yl)-3,3′-difluoro-4-biphenylyl)-1H-imidazol-2-yl)-1-pyrrolidinyl)-2-oxo-1-phenylethyl)carbamate], the EC50 was in the range of 0.001 to 0.999 nM.
To `CCN(CC)[C@@H](C(=O)N1CCC[C@H]1c1ncc(-c2ccc(-c3ccc(-c4cnc([C@@H]5CCCN5C(=O)[C@H](NC(=O)OC)c5ccccc5)[nH]4)c(F)c3)cc2F)[nH]1)c1ccccc1` [Example D64, methyl ((1R)-2-((2S)-2-(5-(4′-(2-((2S)-1-((2R)-2-(diethylamino)-2-phenylacetyl)-2-pyrrolidinyl)-1H-imidazol-5-yl)-3,3′-difluoro-4-biphenylyl)-1H-imidazol-2-yl)-1-pyrrolidinyl)-2-oxo-1-phenylethyl)carbamate] belongs 0.001 to 0.999 nM; to `COC(=O)N[C@H](C(=O)N1CCC[C@H]1c1ncc(-c2ccc(-c3ccc(-c4cnc([C@@H]5CCCN5C(=O)[C@H](NC(=O)OC)c5ccccc5)[nH]4)c(F)c3)cc2F)[nH]1)[C@H](C)OC` [Example D65, methyl ((1S,2R)-1-(((2S)-2-(5-(3,3′-difluoro-4′-(2-((2S)-1-((2R)-2-((methoxyearbonyl)amino)-2-phenylacetyl)-2-pyrrolidinyl)-1H-imidazol-5-yl)-4-biphenylyl)-1H-imidazol-2-yl)-1-pyrrolidinyl)carbonyl)-2-methoxypropyl) carbamate bis(trifluoroacetate)], 0.001 to 0.999 nM; to `COC(=O)N[C@H](C(=O)N1CCC[C@H]1c1nc(-c2ccc(-c3ccc(-c4cnc([C@@H]5CCCN5C(=O)[C@H](NC(=O)OC)c5ccccc5)[nH]4)c(F)c3)cc2F)c[nH]1)C1CC1` [Example D66, methyl ((1S)-1-cyclopropyl-2-((2S)-2-(5-(3,3′-difluoro-4′-(2-((2S)-1-((2R)-2-((methoxycarbonyl)amino)-2-phenylacetyl)-2-pyrrolidinyl)-1H-imidazol-5-yl)-4-biphenylyl)-1H-imidazol-2-yl)-1-pyrrolidinyl)-2-oxoethyl)carbamate], 0.001 to 0.999 nM.
Turning to `COC(=O)N[C@@H](C)C(=O)N1CCC[C@H]1c1nc(-c2cnc(-c3ccc(-c4cnc([C@@H]5CCCN5C(=O)[C@H](C)NC(=O)OC)[nH]4)c(F)c3)nc2)c[nH]1` [Example D67, methyl ((1S)-2-((2S)-2-(5-(2-fluoro-4-(5-(2-((2S)-1-(N-(methoxycarbonyl)-L-alanyl)-2-pyrrolidinyl)-1H-imidazol-5-yl)-2-pyrimidinyl)phenyl)-1H-imidazol-2-yl)-1-pyrrolidinyl)-1-methyl-2-oxoethyl)carbamate], the half-maximal effective concentration (EC50) was 0.001 to 0.999 nM.
To `COC(=O)N[C@H](C(=O)N1CCC[C@H]1c1nc(-c2cnc(-c3ccc(-c4cnc([C@@H]5CCCN5C(=O)[C@@H](NC(=O)OC)C(C)C)[nH]4)c(F)c3)nc2)c[nH]1)C(C)C` [Example D68, methyl ((1S)-1-(((2S)-2-(5-(2-fluoro-4-(5-(2-((2S)-1-((2S)-((methoxycarbonyl)amino)-3-methylbutanoyl)-2-pyrrolidinyl)-1H-imidazol-5-yl)-2-pyrimidinyl)phenyl)-1H-imidazol-2-yl)-1-pyrrolidinyl)carbonyl)-2-methylpropyl) carbamate] belongs 0.001 to 0.999 nM; to `COC(=O)N[C@@H](C(=O)N1CCC[C@H]1c1nc(-c2cnc(-c3ccc(-c4cnc([C@@H]5CCCN5C(=O)[C@H](NC(=O)OC)c5ccccc5)[nH]4)c(F)c3)nc2)c[nH]1)c1ccccc1` [Example D69, methyl ((1R)-2-((2S)-2-(5-(2-(3-fluoro-4-(2-((2S)-1-((2R)-2-((methoxycarbonyl)amino)-2-phenylacetyl)-2-pyrrolidinyl)-1H-imidazol-5-yl)phenyl)-5-pyrimidinyl)-1H-imidazol-2-yl)-1-pyrrolidinyl)-2-oxo-1-phenylethyl)carbamate], 0.001 to 0.999 nM.
For the molecule `COC(=O)N[C@H](C(=O)N1CCC[C@H]1c1nc(-c2cnc(-c3ccc(-c4cnc([C@@H]5CCCN5C(=O)[C@@H](NC(=O)OC)[C@@H](C)OC)[nH]4)c(F)c3)nc2)c[nH]1)[C@@H](C)OC` [Example D70, methyl ((1S,2R)-1-(((2S)-2-(5-(2-fluoro-4-(5-(2-((2S)-1-(N-(methoxycarbonyl)-O-methyl-L-threonyl)-2-pyrrolidinyl)-1H-imidazol-5-yl)-2-pyrimidinyl)phenyl)-1H-imidazol-2-yl)-1-pyrrolidinyl)carbonyl)-2-methoxypropyl) carbamate], the concentration for a half-maximal effect (EC50) was in the range of 0.001 to 0.999 nM.
Consider `COC(=O)N[C@@H](C)C(=O)N1CCC[C@H]1c1nc(-c2cnc(-c3ccc(-c4cnc([C@@H]5CCCN5C(=O)[C@H](C)NC(=O)OC)[nH]4)cc3)nc2)c[nH]1` [Example D73, methyl ((1S)-2-((2S)-2-(5-(4-(5-(2-((2S)-1-(N-(methoxycarbonyl)-L-alanyl)-2-pyrrolidinyl)-1H-imidazol-5-yl)-2-pyrimidinyl)phenyl)-1H-imidazol-2-yl)-1-pyrrolidinyl)-1-methyl-2-oxoethyl)carbamate], for which the half-maximal effective concentration (EC50) was 0.001 to 0.999 nM.
To `COC(=O)N[C@H](C(=O)N1CCC[C@H]1c1nc(-c2cnc(-c3ccc(-c4cnc([C@@H]5CCCN5C(=O)[C@@H](NC(=O)OC)C(C)C)[nH]4)cc3)nc2)c[nH]1)C(C)C` [Example D74, methyl ((1S)-1-(((2S)-2-(5-(2-(4-(2-((2S)-1-((2S)-2-((methoxycarbonyl)amino)-3-methylbutanoyl)-2-pyrrolidinyl)-1H-imidazol-5-yl)phenyl)-5-pyrimidinyl)-1H-imidazol-2-yl)-1-pyrrolidinyl)carbonyl)-2-methylpropyl)carbamate] belongs 0.001 to 0.999 nM.
